Laboratory results taken from patent US20210290527A1, “Compositions and Methods for Treatment of Ocular Conditions” (EyeGate Pharmaceuticals, Inc., priority 2020, published 2021).
Like-named read-outs stand apart in the source and are kept apart here.

Key:
[1] = in water; cited from earlier work
[2] = Rheological testing, parallel plate rheometer: viscosity and shear-thinning; format: physicochemical
Protocol: Thiol-modified carboxymethyl HA (CMHA-S) was synthesized as described in Lawyer et al. and Wendling et al., with a thiol modification of 0.1, 0.2, 0.4, or 0.7 μmol thiol/mg. Hydrogels were created by dissolving CMHA-S in phosphate-buffered saline (PBS; pH 7.4). The CMHA-S was disulfide crosslinked under continuous mixing with the addition of sodium hypochlorite. Rheological testing was performed using a parallel plate format rheometer with a 25 mm-diameter stainless steel geometry. Samples (5-6 ml) of hydrogel were placed in a 35 mm Petri dish, and the geometry was lowered to a gap of 5 mm. To determine viscosity and shear-thinning, the shear rate was varied from 0.1 to 10 Hz. A decreasing viscosity as shear rate increases indicates shear-thinning behavior.
Viscosity was determined as described in Example 1.

[3] = Protocol: (§1) RI was measured with a refractometer and pH was measured with a pH meter.
[4] = pH measured with a pH meter; format: physicochemical
Protocol: as §1

[5] = Release of therapeutic from hydrogel in medi-dialysis chamber into PBS; format: physicochemical; conditions: therapeutic at 1 mg/ml, over 24 hours, dialysis chamber MWCO 50 kDa, UV spectroscopy
Protocol: FIGS. 3A, 3B, 3C, and 3D show the release of therapeutic from hydrogel (“OBG”; blue circles on the graphs) or PBS (green circles on the graphs) into PBS in a medi-dialysis chamber (MWCO, 50 kDa) over time.
The release was monitored over 24 hours and compared to release of the therapeutic from solution in PBS. For this assessment, a 0.5 ml sample of hydrogel plus therapeutic or PBS plus therapeutic was placed into a medi-dialysis chamber, and the chamber was placed in a beaker containing 100 ml of PBS. The remaining amount of therapeutic in the dialysis chamber was monitored using UV spectroscopy at various time points.

[6] = LE 2.5 mg/ml in CMHA-S hydrogel
[7] = drug incorporated at 1 mg/ml in CMHA-S hydrogel
[8] = PredA 1 mg/ml in CMHA-S hydrogel
[9] = PredA 5 mg/ml in CMHA-S hydrogel
[10] = PredA 10 mg/ml in CMHA-S hydrogel

Which water solubility [1] does the source give for `C[C@@H]1C[C@H]2[C@@H]3CCC4=CC(=O)C=C[C@]4(C)[C@@]3(F)[C@@H](O)C[C@]2(C)[C@@]1(O)C(=O)CO` [Dexamethasone, dexamethasone] here?
Its water solubility is “less than 0.09 mg/ml”.

For `CCOC(=O)O[C@]1(C(=O)OCCl)CC[C@H]2[C@@H]3CCC4=CC(=O)C=C[C@]4(C)[C@H]3[C@@H](O)C[C@@]21C` [LE, loteprednol etabonate], which “Viscosity at 2.5 Hz” value ([2]; LE 1 mg/ml in CMHA-S hydrogel) is on record?
Its value is 2.3 Pa · s.

And the “Viscosity at 2.5 Hz” value [2, 6]?
The value was 2.7 Pa · s.

And the “Viscosity at 2.5 Hz” value ([2]; LE 5 mg/ml in CMHA-S hydrogel)?
The value was 3.3 Pa · s.

What about the RI ([3]; LE 1 mg/ml in CMHA-S hydrogel) of the same compound?
The RI was 1.3355.

And the RI [3, 6]?
Its RI is 1.3354.

And the RI ([3]; LE 5 mg/ml in CMHA-S hydrogel)?
The RI was 1.3353.

What about the pH ([4]; LE 1 mg/ml in CMHA-S hydrogel) of the same compound?
The pH was 7.11.

What about the pH [4, 6] of the same compound?
The pH was 7.24.

What about the pH ([4]; LE 5 mg/ml in CMHA-S hydrogel) of the same compound?
The pH was 7.55.

What about the “release from the hydrogel compared to release from PBS” value [5] of the same compound?
The value was “reduced compared to its release from PBS”.

What about the water solubility [1] of the same compound?
Its water solubility is “less than 0.001 mg/ml”.

With `CN(C)CC/C=C1/c2ccccc2COc2ccc(CC(=O)O)cc21` [Olopatadine, olopatadine] as the compound, how does the “Viscosity at 2.5 Hz” value [2, 7] read?
The value was 1.1 Pa · s.

And the RI [3, 7]?
Its RI is 1.3353.

And the pH [4, 7]?
The pH was 7.3.

And the water solubility [1]?
Its water solubility is “about 0.03 mg/ml”.

Which “Viscosity at 2.5 Hz” value [2, 8] does the source give for `CC(=O)OCC(=O)[C@@]1(O)CC[C@H]2[C@@H]3CCC4=CC(=O)C=C[C@]4(C)[C@H]3[C@@H](O)C[C@@]21C` [PredA, prednisolone acetate] here?
The value was 2.0 Pa · s.

What about the “Viscosity at 2.5 Hz” value [2, 9] of the same compound?
The value was 2.7 Pa · s.

And the “Viscosity at 2.5 Hz” value [2, 10]?
The value was 3.0 Pa · s.

And the pH [4, 8]?
Its pH is 7.09.

What about the pH [4, 9] of the same compound?
The pH was 7.13.

And the pH [4, 10]?
The pH was 7.17.
